Data from patent US5719121A, “Use of balhimycin as production promoter in animals, and production promoter compositions” (Hoechst Aktiengesellschaft, priority 1995, dated 1998).

System: broilers
Test: Feeding experiment with balhimycin in broilers (floor management, 35 days): growth and feed utilization
Type: in vivo
Details: for Feed Intake, compared to the control value of 100% / Feed Utilization, compared to the control value of 100% / Live weight End, compared to the control value of 100% / Live weight Gain, compared to the control value of 100%: control = 100; for Feed Intake / Feed Utilization kg of FI/kg of LW / Live weight End: group mean
Protocol: A feeding experiment with balhimycin was carried out in floor management using […] broilers (80 males and 80 females) which were divided into 5 groups:
1st group: untreated control
2nd group: balhimycin, 15 mg/kg of feed
3rd group: balhimycin, 30 mg/kg of feed
4th group: balhimycin, 45 mg/kg of feed
5th group: balhimycin, 60 mg/kg of feed
The feed had the following composition (Table 1):
The animals were kept in boxes of 40 animals each and were given the feed mixtures for 35 days in accordance with their group assignment.
In Table 2, the first number in each column directed to weight change, feed intake, and feed utilization, indicates the number average for the broilers in each group. The second number indicates the standard deviation of the data. The third number indicates the percent difference of each group as compared to the control value of 100%.
Different letters (a, b, ab, c) in the gain column denote significant differences between the groups (P<0.05). Values having the same letter or letters indicate that there is no significant difference between the groups.

Structure (SMILES): CNC(CC(C)C)C(=O)NC1C(=O)NC(CC(N)=O)C(=O)NC2C(=O)NC3C(=O)NC(C(=O)NC(C(=O)O)c4cc(O)cc(O)c4-c4cc3ccc4O)C(OC3C[C@](C)(N)C(=O)C(C)O3)c3ccc(c(Cl)c3)Oc3cc2cc(c3OC2O[C@H](CO)C(O)[C@H](O)C2O)Oc2ccc(cc2Cl)C1O (stereo partly shown) [Balhimycin]
- Feed Intake, compared to the control value of 100% (balhimycin 15 mg/kg of feed): 99.9%
- Feed Utilization, compared to the control value of 100% (balhimycin 15 mg/kg of feed): 92.0%
- Live weight End, compared to the control value of 100% (balhimycin 15 mg/kg of feed): 108.1%
- Live weight Gain, compared to the control value of 100% (balhimycin 15 mg/kg of feed): 108.4%
- Feed Intake (balhimycin 15 mg/kg of feed): 72.5 g/day
- Feed Utilization kg of FI/kg of LW (balhimycin 15 mg/kg of feed): 1.62 kg of FI/kg of LW
- Live weight End (balhimycin 15 mg/kg of feed): 1602.0 g
- Feed Intake, compared to the control value of 100% (balhimycin 30 mg/kg of feed): 100.6%
- Feed Utilization, compared to the control value of 100% (balhimycin 30 mg/kg of feed): 93.8%
- Live weight End, compared to the control value of 100% (balhimycin 30 mg/kg of feed): 110.7%
- Live weight Gain, compared to the control value of 100% (balhimycin 30 mg/kg of feed): 110.8%
- Feed Intake (balhimycin 30 mg/kg of feed): 75.3 g/day
- Feed Utilization kg of FI/kg of LW (balhimycin 30 mg/kg of feed): 1.65 kg of FI/kg of LW
- Live weight End (balhimycin 30 mg/kg of feed): 1640.0 g
- Feed Intake, compared to the control value of 100% (balhimycin 45 mg/kg of feed): 100.6%
- Feed Utilization, compared to the control value of 100% (balhimycin 45 mg/kg of feed): 92.0%
- Live weight End, compared to the control value of 100% (balhimycin 45 mg/kg of feed): 109.1%
- Live weight Gain, compared to the control value of 100% (balhimycin 45 mg/kg of feed): 109.3%
- Feed Intake (balhimycin 45 mg/kg of feed): 73.0 g/day
- Feed Utilization kg of FI/kg of LW (balhimycin 45 mg/kg of feed): 1.62 kg of FI/kg of LW
- Live weight End (balhimycin 45 mg/kg of feed): 1617.0 g
- Feed Intake, compared to the control value of 100% (balhimycin 60 mg/kg of feed): 100.7%
- Feed Utilization, compared to the control value of 100% (balhimycin 60 mg/kg of feed): 93.2%
- Live weight End, compared to the control value of 100% (balhimycin 60 mg/kg of feed): 108.0%
- Live weight Gain, compared to the control value of 100% (balhimycin 60 mg/kg of feed): 108.1%
- Feed Intake (balhimycin 60 mg/kg of feed): 73.1 g/day
- Feed Utilization kg of FI/kg of LW (balhimycin 60 mg/kg of feed): 1.64 kg of FI/kg of LW
- Live weight End (balhimycin 60 mg/kg of feed): 1600.0 g
